“Also recorded” adds a separate entry of the source.
Tested on: patients with Friedreich ataxia
Assay: Phase I-II open pilot trial: ICARS, Perdue Pegboard and parents' observations (patients kept on idebenone)
Format: in vivo, human
Conditions: for Perdue pegboard: number of nails inserted
Text: Ten adolescents (four males, six females aged 14 to 23 yrs) with a diagnosis of Friedreich ataxia, confirmed by detection of a trinucleotide-repeat expansion in the first intron of the frataxin gene, were studied. Patients received deferiprone (Ferriprox™, Apotex Inc., Toronto, Canada) orally, in two doses for 1-5 months. Three patients were included, sequentially, for a minimum period of two months at each dose. Patient enrollment was staggered by two-weeks to enable monitoring of response. In the absence of toxicity, and with evidence of efficacy in any of the first 3 patients, a second group of 3 patients would be included at the same dose for a total duration of 6 months. If there was an absence of both efficacy and toxicity, the second group of three patients would be administered a higher dose. If toxicity developed, the current dose would be suspended and the trial resumed with the next group of patients at a lower dose. The patients were on idebenone (10 mg/kg/day, in three doses) for at least two years prior to inclusion and were kept on the drug at the same dose for the duration of the trial. MRI examinations were done at inclusion and at 1, 2, 4 and 6 months. The protocol was promoted by Assistance Publique-Hopitaux de Paris and approved by the local ethical committee and registered at the National Health Authority (AFSSAPS) and at the International Protocol Registration System (www.clinicaltrials.gov). A written informed consent was obtained from patients and parents.
The International Cooperative Ataxia Rating Score (ICARS) was used to assess the symptoms of ataxia before and after 1-5 months (Cano et al. International cooperative ataxia rating scale (ICARS): Appropriate for studies of Friedreich's ataxia? Mov Disord 2005; 20:1585-91). This scale has four subscales: posture and gait disturbance, kinetic functions, speech disorders and oculomotor disorders. Subscale scores are summed to give a total score ranging from 0 to 100. High scores indicated worse ataxia. The Perdue Pegboard test, which assesses speed of performance, delicate movements and manipulative dexterity, was included in the course of the study. This test assesses the ability of the participant to insert as many nails as possible into preset holes, linearly dug in a wooden board in a limited space of time (20 seconds with the two hands, separately and together). The tests were administered by the same investigator. Patients were monitored for neutropenia, agranulocytosis, musculoskeletal pains and zinc deficiency and had weekly blood counts, plasma iron, serum ferritin and transferrin concentration measurements, as well as assessments of renal and liver function.

[1] = patient eight, DFP 20 mg/kg, 4 mth, after trial
[2] = patient eight, DFP 20 mg/kg, 4 mth, prior to trial
[3] = patient five, DFP 30 mg/kg, 1 mth, after trial
[4] = patient five, DFP 30 mg/kg, 1 mth, prior to trial
[5] = patient four, DFP 20 mg/kg, 2 mth, after trial
[6] = patient four, DFP 20 mg/kg, 2 mth, prior to trial
[7] = patient one, DFP 20 mg/kg, 5 mth, after trial
[8] = patient one, DFP 20 mg/kg, 5 mth, prior to trial
[9] = patient six, DFP 30 mg/kg, 1 mth, after trial
[10] = patient six, DFP 30 mg/kg, 1 mth, prior to trial
[11] = patient three, DFP 20 mg/kg, 2 mth, after trial
[12] = patient three, DFP 20 mg/kg, 2 mth, prior to trial
[13] = patient two, DFP 20 mg/kg, 3 mth, after trial
[14] = patient two, DFP 20 mg/kg, 3 mth, prior to trial

Cc1c(O)c(=O)ccn1C [Deferiprone, 3-hydroxy-1,2-dimethylpyridin-4-one]
time to disappearance of constipation, incontinence and some subjective signs of peripheral neuropathy (20 mg/kg/day oral): 1-2 months
neurological condition noted by parents and uninformed relatives (20 mg/kg/day oral, within a few weeks, all treated patients): unexpected neurological improvement
changes of the ICARS scores (20 mg/kg/day, short period of the trial): mild changes of the ICARS scores
Perdue Pegboard test: speed of performances and dexterity (30 mg/kg/day oral, before and 1-2 months after onset): improvement of speed of performances and dexterity
Kinetic function (/29) [1]: 7
Oculomotor disorder (/6) [1]: 2
Posture and gait disturbance: 7 items (/34) [1]: 9
Posture and gait disturbance: gait speed [1]: 1
Posture and gait disturbance: spread feet [1]: 3
Posture and gait disturbance: standing eyes open [1]: 1
Posture and gait disturbance: walking [1]: 2
Speech disorder (/8) [1]: 2
Total ICARS (/100) [1]: 20
Observation (patient eight, DFP 20 mg/kg, 4 mth, listed as DFP): no more incontinence, improved gait and balance, warming; also recorded: up of feet
Kinetic function (/29) [2]: 7
Oculomotor disorder (/6) [2]: 2
Posture and gait disturbance: 7 items (/34) [2]: 12
Posture and gait disturbance: gait speed [2]: 1
Posture and gait disturbance: spread feet [2]: 3
Posture and gait disturbance: standing eyes open [2]: 2
Posture and gait disturbance: walking [2]: 3
Speech disorder (/8) [2]: 2
Total ICARS (/100) [2]: 23
Kinetic function (/29) [3]: 8
Oculomotor disorder (/6) [3]: 2
Posture and gait disturbance: 7 items (/34) [3]: 8
Posture and gait disturbance: gait speed [3]: 2
Posture and gait disturbance: spread feet [3]: 0
Posture and gait disturbance: standing eyes open [3]: 1
Posture and gait disturbance: walking [3]: 2
Speech disorder (/8) [3]: 2
Total ICARS (/100) [3]: 20
Observation (patient five, DFP 30 mg/kg, 1 mth, listed as DFP): no more constipation, incontinence and bending, improved; also recorded: balance and gait
Kinetic function (/29) [4]: 8
Oculomotor disorder (/6) [4]: 2
Posture and gait disturbance: 7 items (/34) [4]: 11
Posture and gait disturbance: gait speed [4]: 2
Posture and gait disturbance: spread feet [4]: 1
Posture and gait disturbance: standing eyes open [4]: 2
Posture and gait disturbance: walking [4]: 2
Speech disorder (/8) [4]: 2
Total ICARS (/100) [4]: 23
Kinetic function (/29) [5]: 12
Oculomotor disorder (/6) [5]: 0
Posture and gait disturbance: 7 items (/34) [5]: 13
Posture and gait disturbance: gait speed [5]: 1
Posture and gait disturbance: spread feet [5]: 2
Posture and gait disturbance: standing eyes open [5]: 1
Posture and gait disturbance: walking [5]: 3
Speech disorder (/8) [5]: 2
Total ICARS (/100) [5]: 27
Perdue pegboard [5]: 29
Perdue pegboard [6]: 37
Kinetic function (/29) [6]: 13
Oculomotor disorder (/6) [6]: 0
Posture and gait disturbance: 7 items (/34) [6]: 16
Posture and gait disturbance: gait speed [6]: 1
Posture and gait disturbance: spread feet [6]: 2
Posture and gait disturbance: standing eyes open [6]: 3
Posture and gait disturbance: walking [6]: 3
Speech disorder (/8) [6]: 2
Total ICARS (/100) [6]: 31
Kinetic function (/29) [7]: 7
Oculomotor disorder (/6) [7]: 2
Posture and gait disturbance: 7 items (/34) [7]: 27
Posture and gait disturbance: gait speed [7]: 3
Posture and gait disturbance: spread feet [7]: 2
Posture and gait disturbance: standing eyes open [7]: 4
Posture and gait disturbance: walking [7]: 7
Speech disorder (/8) [7]: 0
Total ICARS (/100) [7]: 37
Observation (patient one, DFP 20 mg/kg, 5 mth, listed as DFP): improved gait, writing, delicate movements, can move them; also recorded: toes, feels their feet, warming up of feet
Kinetic function (/29) [8]: 8
Oculomotor disorder (/6) [8]: 2
Posture and gait disturbance: 7 items (/34) [8]: 28
Posture and gait disturbance: gait speed [8]: 3
Posture and gait disturbance: spread feet [8]: 3
Posture and gait disturbance: standing eyes open [8]: 4
Posture and gait disturbance: walking [8]: 7
Speech disorder (/8) [8]: 1
Total ICARS (/100) [8]: 39
Observation (patient seven, DFP 20 mg/kg, 5 mth, listed as DFP): improved gait, writing, delicate movements, can move them; also recorded: toes, feels their feet, warming up of feet
Observation (patient six, DFP 30 mg/kg, 1 mth): improved gait and standing, no more constipation
Kinetic function (/29) [9]: 9
Oculomotor disorder (/6) [9]: 0
Posture and gait disturbance: 7 items (/34) [9]: 17
Posture and gait disturbance: gait speed [9]: 1
Posture and gait disturbance: spread feet [9]: 2
Posture and gait disturbance: standing eyes open [9]: 2
Posture and gait disturbance: walking [9]: 7
Speech disorder (/8) [9]: 0
Total ICARS (/100) [9]: 26
Perdue pegboard [9]: 39
Perdue pegboard [10]: 52
Kinetic function (/29) [10]: 9
Oculomotor disorder (/6) [10]: 0
Posture and gait disturbance: 7 items (/34) [10]: 20
Posture and gait disturbance: gait speed [10]: 1
Posture and gait disturbance: spread feet [10]: 2
Posture and gait disturbance: standing eyes open [10]: 3
Posture and gait disturbance: walking [10]: 7
Speech disorder (/8) [10]: 0
Total ICARS (/100) [10]: 29
Kinetic function (/29) [11]: 11
Oculomotor disorder (/6) [11]: 0
Posture and gait disturbance: 7 items (/34) [11]: 16
Posture and gait disturbance: gait speed [11]: 2
Posture and gait disturbance: spread feet [11]: 3
Posture and gait disturbance: standing eyes open [11]: 4
Posture and gait disturbance: walking [11]: 7
Speech disorder (/8) [11]: 2
Total ICARS (/100) [11]: 29
Perdue pegboard [11]: 44
Perdue pegboard [12]: 37
Kinetic function (/29) [12]: 11
Oculomotor disorder (/6) [12]: 0
Posture and gait disturbance: 7 items (/34) [12]: 17
Posture and gait disturbance: gait speed [12]: 2
Posture and gait disturbance: spread feet [12]: 3
Posture and gait disturbance: standing eyes open [12]: 5
Posture and gait disturbance: walking [12]: 7
Speech disorder (/8) [12]: 3
Total ICARS (/100) [12]: 31
Observation (patient two, DFP 20 mg/kg, 3 mth): no more fatigue, improved delicate movements
Kinetic function (/29) [13]: 21
Oculomotor disorder (/6) [13]: 2
Posture and gait disturbance: 7 items (/34) [13]: 32
Posture and gait disturbance: gait speed [13]: 4
Posture and gait disturbance: spread feet [13]: 4
Posture and gait disturbance: standing eyes open [13]: 6
Posture and gait disturbance: walking [13]: 7
Speech disorder (/8) [13]: 4
Total ICARS (/100) [13]: 59
Kinetic function (/29) [14]: 21
Oculomotor disorder (/6) [14]: 3
Posture and gait disturbance: 7 items (/34) [14]: 33
Posture and gait disturbance: gait speed [14]: 4
Posture and gait disturbance: spread feet [14]: 4
Posture and gait disturbance: standing eyes open [14]: 6
Posture and gait disturbance: walking [14]: 7
Speech disorder (/8) [14]: 4
Total ICARS (/100) [14]: 61
